Source: BigSolDB 2.1

c1ccc(-n2c3ccccc3c3ccccc32)cc1
solubility (mole fraction)
Details	278.15 K	283.15 K	288.15 K	293.15 K	298.15 K	303.15 K	308.15 K	313.15 K
in 1,4-dioxane	–	–	0.124	0.213	0.292	0.417	0.514	0.717
in THF	0.249	0.274	0.309	0.346	0.386	0.439	0.497	0.562
in acetonitrile	0.00383	0.00413	0.00487	0.00582	0.00624	0.00735	0.00826	0.0102
in chloroform	0.237	0.262	0.322	0.399	0.461	0.555	0.651	0.753
in cyclohexane	–	0.034	0.0421	0.0523	0.0691	0.0815	0.101	0.132
in dichloromethane	0.223	0.246	0.311	0.385	0.453	0.548	0.644	–
in ethanol	0.00099	0.00167	0.00218	0.00271	0.00334	0.0042	0.00574	0.007
in isopropanol	0.001	0.00131	0.00215	0.00244	0.00303	0.004	0.00458	0.00591
in methanol	6.96e-05	0.00011	0.000178	0.000208	0.000251	0.000296	0.000427	0.00055
in n-butanol	0.00207	0.00219	0.00266	0.00333	0.00403	0.00468	0.00691	0.00919
in n-hexane	0.0355	0.0378	0.0431	0.0494	0.0552	0.0624	0.0703	0.078
in n-propanol	0.00298	0.00323	0.00412	0.00517	0.0061	0.00749	0.00936	0.0116
